Consider 14 compounds from patent US10975056B2 (GlaxoSmithKline Intellectual Property Development Limited, priority 2016, dated 2021).

The target in one assay is DNMT1 (Homo sapiens, UniProt P26358). Put plainly: DNMT1 biochemical activity, breaklight assay and/or SPA assay. The settings on record: for IC50 / DNMT1 BioChemical (pIC50 category): binned activity in either the breaklight or the SPA assay.
Assay [1] deals with erythroid progenitor cells (EPCs). Put plainly: Fetal hemoglobin (HbF) ELISA in day 7 erythroid progenitor cells.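 As to EPC ELISA (pEC50 category): for fetal hemoglobin induction normalized to vehicle-treated cells.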 The class given is cell-based, human. The settings on record: Homo sapiens, Erythroid progenitor cell. Summed up: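 CD34+-derived EPCs, 1,000 cells/well, rhEPO 3 U/mL; Compound A 22-pt series, […]; 5 d, 37° C, 5% CO2. Freeze-thaw lysis, anti-HbF capture + HRP anti-HbF, TMB, OD450. Normalized to DMSO wells.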
Background: ELISA stands for enzyme-linked immunosorbent assay.

Where [2] appears, read: read-out: DNMT1 BioChemical (pIC50 category) (converted).
Setting [3] is: HbF ELISA, day 7 EPCs, 5 days, read-out: EPC ELISA (pEC50 category) (converted).

Counter-ions that a name gives are not always drawn. Like-named read-outs stand apart in the source and are kept apart here. Bounds are passed on as bounds.

Chain of DNMT1 (P26358 whole entry, looked up): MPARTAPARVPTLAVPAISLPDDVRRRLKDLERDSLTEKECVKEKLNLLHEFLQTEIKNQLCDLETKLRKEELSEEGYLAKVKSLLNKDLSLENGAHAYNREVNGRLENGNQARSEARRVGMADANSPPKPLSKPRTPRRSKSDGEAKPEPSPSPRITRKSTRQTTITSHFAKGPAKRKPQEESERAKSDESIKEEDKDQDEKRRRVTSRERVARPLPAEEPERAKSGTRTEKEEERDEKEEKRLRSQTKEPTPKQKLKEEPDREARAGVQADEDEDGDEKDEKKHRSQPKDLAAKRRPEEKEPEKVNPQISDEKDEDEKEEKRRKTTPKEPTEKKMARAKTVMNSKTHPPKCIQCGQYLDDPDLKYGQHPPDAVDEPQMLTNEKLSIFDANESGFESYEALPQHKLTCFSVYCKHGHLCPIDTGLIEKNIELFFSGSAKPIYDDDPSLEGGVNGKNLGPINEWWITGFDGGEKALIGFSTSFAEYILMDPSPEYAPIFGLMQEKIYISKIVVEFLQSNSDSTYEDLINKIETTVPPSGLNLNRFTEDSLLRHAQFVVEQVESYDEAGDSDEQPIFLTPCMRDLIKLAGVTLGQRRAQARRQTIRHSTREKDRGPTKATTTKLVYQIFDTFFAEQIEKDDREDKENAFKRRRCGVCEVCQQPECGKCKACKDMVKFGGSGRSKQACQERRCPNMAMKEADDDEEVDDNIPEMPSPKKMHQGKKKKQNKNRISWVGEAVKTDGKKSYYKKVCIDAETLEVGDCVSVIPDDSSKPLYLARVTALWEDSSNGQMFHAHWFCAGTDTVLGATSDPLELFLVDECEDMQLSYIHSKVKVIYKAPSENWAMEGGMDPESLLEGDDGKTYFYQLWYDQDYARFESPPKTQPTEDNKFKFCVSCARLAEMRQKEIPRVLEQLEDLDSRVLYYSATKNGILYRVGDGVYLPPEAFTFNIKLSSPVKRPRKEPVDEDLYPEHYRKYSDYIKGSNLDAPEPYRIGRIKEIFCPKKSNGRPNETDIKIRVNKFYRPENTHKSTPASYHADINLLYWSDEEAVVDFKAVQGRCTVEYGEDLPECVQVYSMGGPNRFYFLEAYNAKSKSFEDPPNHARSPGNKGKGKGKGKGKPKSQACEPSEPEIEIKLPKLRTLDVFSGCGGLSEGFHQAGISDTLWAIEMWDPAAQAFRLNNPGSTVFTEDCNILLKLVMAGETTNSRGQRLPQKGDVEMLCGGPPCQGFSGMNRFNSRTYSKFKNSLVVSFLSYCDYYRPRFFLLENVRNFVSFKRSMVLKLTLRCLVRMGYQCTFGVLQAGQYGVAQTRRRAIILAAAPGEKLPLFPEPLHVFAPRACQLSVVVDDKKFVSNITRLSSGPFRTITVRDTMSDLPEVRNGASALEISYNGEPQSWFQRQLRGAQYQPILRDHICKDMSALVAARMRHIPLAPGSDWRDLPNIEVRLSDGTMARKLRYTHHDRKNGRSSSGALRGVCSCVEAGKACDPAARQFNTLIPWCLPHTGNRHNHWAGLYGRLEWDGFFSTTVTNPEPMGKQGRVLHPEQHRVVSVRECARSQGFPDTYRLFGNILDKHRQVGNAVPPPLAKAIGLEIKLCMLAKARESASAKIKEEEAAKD

For the compound `N#Cc1c(SC(C(N)=O)c2ccccc2)nc(N2CCOC(CO)C2)c(C#N)c1C1CC1` (stereo not shown) [Example 63, 2-((3,5-Dicyano-4-cyclopropyl-6-(2-(hydroxymethyl)morpholino)pyridin-2-yl)thio)-2-phenylacetamide], on DNMT1 (setting [2]), the IC50 was 316 to 1000 nM. In assay [1] (setting [3]), the EC50 is 316 to 1000 nM.
With `CCc1c(C#N)c(N[C@@H](C(N)=O)c2ccccc2)nc(N2CCCNCC2)c1C#N` [Example 41, (R)-2-((3,5-dicyano-6-(1,4-diazepan-1-yl)-4-ethylpyridin-2-yl)amino)-2-phenylacetamide], the IC50 on DNMT1 (setting [2]) was 316 to 1000 nM. Also, in assay [1] (setting [3]), the EC50 is 1000 to 31600 nM.
With `CCc1c(C#N)c(SC(C(N)=O)c2ccccc2)nc(N(C)C)c1C#N` (stereo not shown) [Compound A, 2-{[3,5-dicyano-6-(dimethylamino)-4-ethylpyridin-2-yl]sulfanyl}-2-phenylacetamide], the EC50 in assay [1] (day 7 EPCs, 5 days at 37° C, read-out: increase in HbF, average pEC50 (converted)) is 316 nM.
`CCc1c(C#N)c(SC(C(N)=O)c2ccccc2)nc(N2CCC23CCNCC3)c1C#N` (stereo not shown) [Example 38, 2-((3,5-Dicyano-4-ethyl-6-(1,7-diazaspiro[3.5]nonan-1-yl)pyridin-2-yl)thio)-2-phenylacetamide trifluoroacetate]: the IC50 at DNMT1 (DNMT1 BioChemical (pIC50 category)) lay within 316 to 1000 nM. For the same compound, the EC50 in assay [1] (read-out: EPC ELISA (pEC50 category) (converted)) was 316 to 1000 nM.
`CCc1c(C#N)c(SC(C(N)=O)c2ccccc2)nc(N2CCC(O)CC2)c1C#N` (stereo not shown) [Example 48, 2-((3,5-Dicyano-4-ethyl-6-(4-hydroxypiperidin-1-yl)pyridin-2-yl)thio)-2-phenylacetamide]: at DNMT1 (setting [2]), the IC50 is 316 to 1000 nM. The EC50 in assay [1] (setting [3]) is 1000 to 31600 nM.
For the compound `N#Cc1c(SC(C(N)=O)c2ccncc2)nc(N2CCOCC2)c(C#N)c1C1CC1` (stereo not shown) [Example 9, 2-((3,5-dicyano-4-cyclopropyl-6-morpholinopyridin-2-yl)thio)-2-(pyridin-4-yl)acetamide], at DNMT1 (setting [2]), the IC50 is 316 to 1000 nM. Moreover, the EC50 in assay [1] (setting [3]) was greater than 31600 nM.
In the case of `CN1CCN(C2CCN(c3nc(SC(C(N)=O)c4ccccc4)c(C#N)c(C4CC4)c3C#N)CC2)CC1` (stereo not shown) [Example 40, 2-((3,5-Dicyano-4-cyclopropyl-6-(4-(4-methylpiperazin-1-yl)piperidin-1-yl)pyridin-2-yl)thio)-2-phenylacetamide], on DNMT1, the “DNMT1 BioChemical (pIC50 category)” value was “D (Category D: ≥6.5)”. Also, the EC50 in assay [1] (setting [3]) was less than 316 nM.
As to `CC(Sc1nc(N2CCCNCC2)c(C#N)c(C2CC2)c1C#N)C(N)=O` (stereo not shown) [Example 46, 2-((3,5-dicyano-4-cyclopropyl-6-(1,4-diazepan-1-yl)pyridin-2-yl)thio)propanamide], the IC50 on DNMT1 (setting [2]) is 316 to 1000 nM. For the same compound, the EC50 in assay [1] (setting [3]) was greater than 31600 nM.
In the case of `CCc1c(C#N)c(SC(C(N)=O)c2ccccc2)nc(N2CCN(CC)CC2)c1C#N` (stereo not shown) [Example 35, 2-((3,5-dicyano-4-ethyl-6-(4-ethylpiperazin-1-yl)pyridin-2-yl)thio)-2-phenylacetamide], the IC50 at DNMT1 (setting [2]) was 316 to 1000 nM. Also, in assay [1] (setting [3]), the EC50 is 1000 to 31600 nM.
In the same order, the values of `CCc1c(C#N)c(SC(C(N)=O)c2ccccc2)nc(N2CCNC(=O)CC2)c1C#N` (stereo not shown) [Example 8, 2-{[3,5-dicyano-4-ethyl-6-(5-oxo-1,4-diazepan-1-yl)pyridin-2-yl]sulfanyl}-2-phenylacetamide] are 316 to 1000 nM and 1000 to 31600 nM.
Taken in the same sequence, the figures for `CCc1c(C#N)c(SC(C(N)=O)c2ccccc2)nc(N2CCNCC2)c1C#N` (stereo not shown) [Example 55, 2-((3,5-Dicyano-4-ethyl-6-(piperazin-1-yl)pyridin-2-yl)thio)-2-phenylacetamide] were 316 to 1000 nM and less than 316 nM.
For `CCc1c(C#N)c(SC(C(N)=O)c2ccccc2)nc(N2CCOCC2)c1C#N` (stereo not shown) [Example 57, 2-((3,5-Dicyano-4-ethyl-6-morpholinopyridin-2-yl)thio)-2-phenylacetamide], the IC50 on DNMT1 (setting [2]) was 316 to 1000 nM. For the same compound, the EC50 in assay [1] (setting [3]) is 316 to 1000 nM.
On to `CN1CCN(CC2CCN(c3nc(SC(C(N)=O)c4ccccc4)c(C#N)c(C4CC4)c3C#N)CC2)CC1` (stereo not shown) [Example 125, 2-((3,5-Dicyano-4-cyclopropyl-6-(4-((4-methylpiperazin-1-yl)methyl)piperidin-1-yl)pyridin-2-yl)thio-2-phenylacetamide trifluoroacetate], for which, at DNMT1, the “DNMT1 BioChemical (pIC50 category)” value was “D (Category D: ≥6.5)”. Besides, on DNMT1 (breaklight assay and/or SPA assay, repeated experimental runs), the “average pIC50 against DNMT1” value is greater than 6.5. Moreover, the EC50 in assay [1] (setting [3]) is less than 316 nM.
Regarding `CCc1c(C#N)c(SC(C(N)=O)c2ccccc2)nc(N2CCCN(C)CC2)c1C#N` (stereo not shown) [Example 56, 2-((3,5-Dicyano-4-ethyl-6-(4-methyl-1,4-diazepan-1-yl)pyridin-2-yl)thio)-2-phenylacetamide], the “DNMT1 BioChemical (pIC50 category)” value at DNMT1 is “D (Category D: ≥6.5)”. Also, the EC50 in assay [1] (setting [3]) was less than 316 nM.
